Assay results: US8445492B2, “Method for inhibiting growth of cancer cells and cell telomere and diseases of cell proliferation by using heteroannelated anthraquinone derivative compounds” (National Defense Medical Center, priority 2008, dated 2013)

Legend:
Test in all cases: NCI DTP in-vitro dose response, Ovarian Cancer
Format in all cases: cell-based
IGROV1 = system: IGROV1
SK-OV-3 = settings: for GI50: read-out: GI50
OVCAR-8 = settings: for GI50: read-out: GI50
OVCAR-3 = settings: for GI50: read-out: GI50
OVCAR-5 = settings: for GI50: read-out: GI50
OVCAR-4 = settings: for GI50: read-out: GI50

## CCc1nc2ccc3c(c2[nH]1)C(=O)c1ccccc1C3=O [TABLE 4-6]
IGROV1
  CC50: > 100 µM
  GI50: 1.34 µM
  TGI: 1.69E−5
IGROV1; Log10 Concentration −4.0
  Percent Growth: −19%
IGROV1; Log10 Concentration −5.0
  Percent Growth: 6%
IGROV1; Log10 Concentration −6.0
  Percent Growth: 56%
IGROV1; Log10 Concentration −7.0
  Percent Growth: 88%
IGROV1; Log10 Concentration −8.0
  Percent Growth: 89%
SK-OV-3
  CC50: > 100 µM
  TGI: >1.00E−4
  GI50: 2.55 µM
SK-OV-3; Log10 Concentration −4.0
  Percent Growth: 14%
SK-OV-3; Log10 Concentration −5.0
  Percent Growth: 12%
SK-OV-3; Log10 Concentration −6.0
  Percent Growth: 76%
SK-OV-3; Log10 Concentration −7.0
  Percent Growth: 92%
SK-OV-3; Log10 Concentration −8.0
  Percent Growth: 95%
OVCAR-8
  CC50: > 100 µM
  TGI: >1.00E−4
  GI50: 17.7 µM
OVCAR-8; Log10 Concentration −4.0
  Percent Growth: 24%
OVCAR-8; Log10 Concentration −5.0
  Percent Growth: 58%
OVCAR-8; Log10 Concentration −6.0
  Percent Growth: 92%
OVCAR-8; Log10 Concentration −7.0
  Percent Growth: 91%
OVCAR-8; Log10 Concentration −8.0
  Percent Growth: 96%
OVCAR-3
  CC50: > 100 µM
  TGI: >1.00E−4
  GI50: 14.1 µM
OVCAR-3; Log10 Concentration −4.0
  Percent Growth: 8%
OVCAR-3; Log10 Concentration −5.0
  Percent Growth: 57%
OVCAR-3; Log10 Concentration −6.0
  Percent Growth: 93%
OVCAR-3; Log10 Concentration −7.0
  Percent Growth: 106%
OVCAR-3; Log10 Concentration −8.0
  Percent Growth: 100%
OVCAR-5
  CC50: > 100 µM
  TGI: >1.00E−4
  GI50: 75.7 µM
OVCAR-5; Log10 Concentration −4.0
  Percent Growth: 45%
OVCAR-5; Log10 Concentration −5.0
  Percent Growth: 85%
OVCAR-5; Log10 Concentration −6.0
  Percent Growth: 94%
OVCAR-5; Log10 Concentration −7.0
  Percent Growth: 91%
OVCAR-5; Log10 Concentration −8.0
  Percent Growth: 88%
OVCAR-4
  CC50: > 100 µM
  TGI: >1.00E−4
  GI50: 5.18 µM
OVCAR-4; Log10 Concentration −4.0
  Percent Growth: 15%
OVCAR-4; Log10 Concentration −5.0
  Percent Growth: 37%
OVCAR-4; Log10 Concentration −6.0
  Percent Growth: 83%
OVCAR-4; Log10 Concentration −7.0
  Percent Growth: 96%
OVCAR-4; Log10 Concentration −8.0
  Percent Growth: 98%

## O=C1c2ccccc2C(=O)c2c1ccc1nccnc21 [TABLE 5-6]
IGROV1
  CC50: > 100 µM
  GI50: 2.55 µM
  TGI: 3.59E−5
IGROV1; Log10 Concentration −4.0
  Percent Growth: −27%
IGROV1; Log10 Concentration −5.0
  Percent Growth: 33%
IGROV1; Log10 Concentration −6.0
  Percent Growth: 61%
IGROV1; Log10 Concentration −7.0
  Percent Growth: 74%
IGROV1; Log10 Concentration −8.0
  Percent Growth: 90%
SK-OV-3
  CC50: > 100 µM
  TGI: >1.00E−4
  GI50: 6.95 µM
SK-OV-3; Log10 Concentration −4.0
  Percent Growth: 8%
SK-OV-3; Log10 Concentration −5.0
  Percent Growth: 44%
SK-OV-3; Log10 Concentration −6.0
  Percent Growth: 79%
SK-OV-3; Log10 Concentration −7.0
  Percent Growth: 89%
SK-OV-3; Log10 Concentration −8.0
  Percent Growth: 91%
OVCAR-8
  CC50: > 100 µM
  TGI: >1.00E−4
  GI50: 5.07 µM
OVCAR-8; Log10 Concentration −4.0
  Percent Growth: 13%
OVCAR-8; Log10 Concentration −5.0
  Percent Growth: 36%
OVCAR-8; Log10 Concentration −6.0
  Percent Growth: 83%
OVCAR-8; Log10 Concentration −7.0
  Percent Growth: 89%
OVCAR-8; Log10 Concentration −8.0
  Percent Growth: 97%
OVCAR-3
  CC50: > 100 µM
  TGI: 1.25E−5
  GI50: 2.34 µM
OVCAR-3; Log10 Concentration −4.0
  Percent Growth: −42%
OVCAR-3; Log10 Concentration −5.0
  Percent Growth: 4%
OVCAR-3; Log10 Concentration −6.0
  Percent Growth: 77%
OVCAR-3; Log10 Concentration −7.0
  Percent Growth: 95%
OVCAR-3; Log10 Concentration −8.0
  Percent Growth: 104%
OVCAR-5
  CC50: > 100 µM
  TGI: >1.00E−4
  GI50: 59.3 µM
OVCAR-5; Log10 Concentration −4.0
  Percent Growth: 19%
OVCAR-5; Log10 Concentration −5.0
  Percent Growth: 77%
OVCAR-5; Log10 Concentration −6.0
  Percent Growth: 98%
OVCAR-5; Log10 Concentration −7.0
  Percent Growth: 90%
OVCAR-5; Log10 Concentration −8.0
  Percent Growth: 97%
OVCAR-4
  CC50: > 100 µM
  TGI: >1.00E−4
  GI50: 10.5 µM
OVCAR-4; Log10 Concentration −4.0
  Percent Growth: 3%
OVCAR-4; Log10 Concentration −5.0
  Percent Growth: 51%
OVCAR-4; Log10 Concentration −6.0
  Percent Growth: 74%
OVCAR-4; Log10 Concentration −7.0
  Percent Growth: 91%
OVCAR-4; Log10 Concentration −8.0
  Percent Growth: 102%
